# Assay results: ChEMBL document CHEMBL3992552, “Mechanisms of action and structure-activity relationships of cytotoxic flavokawain derivatives” (Bioorg Med Chem, 2017)
# pIC50: −log10 of the molar value. Active and inactive are the calls of the source. No cut-off for these calls is given here.
# How the values were obtained:
# HCT-116 [1] = assay: Cell cycle arrest in human HCT116 cells harboring wild-type p53 assessed as accumulation at S phase at 25 uM measured after 48 hrs by Hoechst/BrdU staining based fluorescence assay (reference value: 68.4%); assay type: functional
# PC-3 [2] = assay: Induction of apoptosis in human PC3 cells harboring p53 mutant assessed as increase in early apoptosis at 2 times IC50 after 48 hrs by YoPro/propidium iodide/Hoechst staining based assay; assay type: functional, cell-based
# Fibroblast = assay: Cytotoxicity against human fibroblasts assessed as cell viability after 48 hrs by Hoechst 33342 staining based assay
# MDA-MB-231 [3] = assay: Cytotoxicity against human MDA-MB-231 cells assessed as cell survival at 50 uM after 48 hrs by Hoechst 33342 staining based assay relative to control; assay type: functional; conditions: MDA-MB-231, 48 h, read-out: Survival
# MDA-MB-231 [4] = assay: Cell cycle arrest in human MDA-MB-231 cells harboring p53 mutant assessed as mitotic index at 25 uM measured after 48 hrs by Hoechst staining based fluorescence assay (reference value: 2.1); assay type: functional
# PC-3 [5] = assay: Induction of apoptosis in human PC3 cells harboring p53 mutant assessed as increase in late apoptosis at 2 times IC50 after 48 hrs by YoPro/propidium iodide/Hoechst staining based assay; assay type: functional, cell-based
# [6] = Selectivity index, ratio of IC50 for human fibroblasts to IC50 for human RL cells
# HaCaT [7] = assay: Cell cycle arrest in human HaCaT cells assessed as accumulation at M phase by Hoechst staining based fluorescence assay; assay type: functional
# HaCaT [8] = assay: Cell cycle arrest in human HaCaT cells harboring […] p53 assessed as accumulation at S phase at 10 uM measured after 48 hrs by Hoechst/BrdU staining based fluorescence assay (reference value: 52.3%); assay type: functional
# HCT-116 [9] = assay: Cell cycle arrest in human HCT116 cells harboring wild-type p53 assessed as mitotic index at 10 uM measured after 48 hrs by Hoechst staining based fluorescence assay (reference value: 2.3); assay type: functional
# Caco-2 [10] = assay: Cell cycle arrest in human Caco2 cells assessed as mitotic index at 10 uM measured after 48 hrs by Hoechst staining based fluorescence assay (reference value: 3.6); assay type: functional
# PC-3 [11] = assay: Cell cycle arrest in human PC3 cells harboring p53 mutant assessed as mitotic index at 10 uM measured after 48 hrs by Hoechst staining based fluorescence assay (reference value: 2.5); assay type: functional
# PC-3 [12] = assay: Cell cycle arrest in human PC3 cells harboring p53 mutant assessed as accumulation at S phase at 10 uM measured after 48 hrs by Hoechst/BrdU staining based fluorescence assay (reference value: 40.8%); assay type: functional
# NCI-H727 [13] = assay: Cell cycle arrest in human NCI-H727 cells harboring p53 mutant assessed as accumulation at S phase at 25 uM measured after 48 hrs by Hoechst/BrdU staining based fluorescence assay (reference value: 40.3%); assay type: functional
# MDA-MB-231 [14] = assay: Cytotoxicity against human MDA-MB-231 cells assessed as cell viability after 48 hrs by Hoechst 33342 staining based assay; assay type: functional; conditions: MDA-MB-231, 48 h
# HCT-116 [15] = assay: Cell cycle arrest in human HCT116 cells harboring wild-type p53 assessed as mitotic index at 25 uM measured after 48 hrs by Hoechst staining based fluorescence assay (reference value: 2.3); assay type: functional
# Caco-2 [16] = assay: Cytotoxicity against human Caco2 cells assessed as cell viability after 48 hrs by Hoechst 33342 staining based assay; assay type: functional; conditions: Caco-2, 48 h
# [17] = Selectivity index, ratio of IC50 for human fibroblasts to IC50 for human NCI-H727 cells
# Caco-2 [18] = assay: Cell cycle arrest in human Caco2 cells assessed as mitotic index at 25 uM measured after 48 hrs by Hoechst staining based fluorescence assay (reference value: 3.6); assay type: functional
# PC-3 [19] = assay: Induction of apoptosis in human PC3 cells harboring p53 mutant assessed as upregulation of cyclinB1 after 48 hrs by Hoechst staining based assay; assay type: functional, cell-based
# HCT-116 [20] = assay: Induction of apoptosis in human HCT116 cells harboring wild-type p53 assessed as upregulation of p21 measured after 48 hrs by Hoechst staining based fluorescence assay; assay type: functional, cell-based
# Huh-7 [21] = assay: Cytotoxicity against human HuH7 cells assessed as cell viability after 48 hrs by Hoechst 33342 staining based assay; assay type: functional; conditions: Huh-7, 48 h
# PC-3 [22] = assay: Cell cycle arrest in human PC3 cells harboring p53 mutant assessed as mitotic index at 25 uM measured after 48 hrs by Hoechst staining based fluorescence assay (reference value: 2.5); assay type: functional
# PC-3 [23] = assay: Cell cycle arrest in human PC3 cells harboring p53 mutant assessed as accumulation at S phase at 25 uM measured after 48 hrs by Hoechst/BrdU staining based fluorescence assay (reference value: 40.8%); assay type: functional
# Huh-7 [24] = assay: Cell cycle arrest in human HuH7 cells assessed as accumulation at S phase at 25 uM measured after 48 hrs by Hoechst/BrdU staining based fluorescence assay (reference value: 44%); assay type: functional
# MDA-MB-231 [25] = assay: Cell cycle arrest in human MDA-MB-231 cells harboring p53 mutant assessed as accumulation at S phase at 25 uM measured after 48 hrs by Hoechst/BrdU staining based fluorescence assay (reference value: 42.2%); assay type: functional
# MCF7 = assay: Induction of apoptosis in human MCF7 cells harboring wild-type p53 assessed as upregulation of cyclinB1 measured after 18 hrs by Hoechst staining based assay; assay type: functional, cell-based
# HCT-116 [26] = assay: Induction of apoptosis in human HCT116 cells harboring wild-type p53 assessed as increase in late apoptosis at 2 times IC50 after 48 hrs by YoPro/propidium iodide/Hoechst staining based assay; assay type: functional, cell-based
# MDA-MB-231 [27] = assay: Induction of apoptosis in human MDA-MB-231 cells harboring p53 mutant assessed as increase in early apoptosis at 2 times IC50 after 24 hrs by YoPro/propidium iodide/Hoechst staining based assay; assay type: functional, cell-based
# [28] = Selectivity index, ratio of IC50 for human fibroblasts to IC50 for human PC3 cells
# [29] = Selectivity index, ratio of IC50 for human fibroblasts to IC50 for human HuH7 cells
# HaCaT [30] = assay: Cell cycle arrest in human HaCaT cells harboring […] p53 assessed as mitotic index at 10 uM measured after 48 hrs by Hoechst staining based fluorescence assay (reference value: 2.6); assay type: functional
# MDA-MB-231 [31] = assay: Cell cycle arrest in human MDA-MB-231 cells harboring p53 mutant assessed as mitotic index at 10 uM measured after 48 hrs by Hoechst staining based fluorescence assay (reference value: 2.1); assay type: functional
# HCT-116 [32] = assay: Cell cycle arrest in human HCT116 cells harboring wild-type p53 assessed as accumulation at S phase at 10 uM measured after 48 hrs by Hoechst/BrdU staining based fluorescence assay (reference value: 68.4%); assay type: functional
# Huh-7 [33] = assay: Cell cycle arrest in human HuH7 cells assessed as mitotic index at 10 uM measured after 48 hrs by Hoechst staining based fluorescence assay (reference value: 2.2); assay type: functional
# Huh-7 [34] = assay: Cell cycle arrest in human HuH7 cells assessed as mitotic index at 25 uM measured after 48 hrs by Hoechst staining based fluorescence assay (reference value: 2.2); assay type: functional
# [35] = Selectivity index, ratio of IC50 for human fibroblasts to IC50 for human MCF7 cells
# NCI-H727 [36] = assay: Cell cycle arrest in human NCI-H727 cells harboring p53 mutant assessed as accumulation at S phase at 10 uM measured after 48 hrs by Hoechst/BrdU staining based fluorescence assay (reference value: 40.3%); assay type: functional
SMILES,Activity (HCT-116 [1]) [%],Activity (PC-3 [2]),pIC50 (Fibroblast),viability at 50 µM (MDA-MB-231 [3]) [%],Activity_index (MDA-MB-231 [4]),Activity (PC-3 [5]),Ratio IC50 [6],Activity (HaCaT [7]),Activity (HaCaT [8]) [%],Activity_index (HCT-116 [9]),Activity_index (Caco-2 [10]),Activity_index (PC-3 [11]),Activity (PC-3 [12]) [%],Activity (NCI-H727 [13]) [%],pIC50 (MDA-MB-231 [14]),Activity_index (HCT-116 [15]),pIC50 (Caco-2 [16]),Ratio IC50 [17],Activity_index (Caco-2 [18]),Activity (PC-3 [19]),other results
COc1cc(OC)c(C(=O)/C=C/c2ccccc2SC)c(OC)c1,0.5,Active,< 4.70,36,13.2,Active,3.8,Active,24,0.6,29.3,12.1,30,3,5.00,0.4,5.06,3.7,4.2,Active,Activity (HCT-116 [20]): Active; pIC50 (Huh-7 [21]): 4.85; Activity_index (PC-3 [22]): 0.3; Activity (PC-3 [23]): 0%; Activity (Huh-7 [24]): 0.3%; Activity (MDA-MB-231 [25]): 16%; Activity (MCF7): Active; Activity (HCT-116 [26]): Active; Activity (MDA-MB-231 [27]): Active; Ratio IC50 [28]: 4.2; Ratio IC50 [29]: 2.3; Activity_index (HaCaT [30]): 18.9; Activity_index (MDA-MB-231 [31]): 18; Activity (HCT-116 [32]): 25%; Activity_index (Huh-7 [33]): 6.5; Activity_index (Huh-7 [34]): 0.4; Ratio IC50 [35]: 3.4; Activity (NCI-H727 [36]): 35%
COc1cc(OC)c(C(=O)/C=C/c2ccccc2)c(OC)c1,2.6,Active,< 4.70,13,13.2,Active,>7.2,Active,18,2,38.7,18,24,4.5,4.89,0.8,5.24,>4.4,13,Active,Activity (HCT-116 [20]): Active; pIC50 (Huh-7 [21]): 4.81; Activity_index (PC-3 [22]): 1.2; Activity (PC-3 [23]): 1.7%; Activity (Huh-7 [24]): 0.7%; Activity (MDA-MB-231 [25]): 23%; Activity (MCF7): Active; Activity (HCT-116 [26]): Active; Activity (MDA-MB-231 [27]): Active; Ratio IC50 [28]: >9.8; Ratio IC50 [29]: >3.2; Activity_index (HaCaT [30]): 18.3; Activity_index (MDA-MB-231 [31]): 21; Activity (HCT-116 [32]): 19%; Activity_index (Huh-7 [33]): 8.5; Activity_index (Huh-7 [34]): 0.6; Ratio IC50 [35]: >5.3; Activity (NCI-H727 [36]): 34%
COc1cccc(/C=C/C(=O)c2c(OC)cc(OC)cc2OC)c1,0.6,Active,< 4.70,4,3.5,Active,>8.5,Active,19,4.5,36.8,27.6,23,5.1,5.06,1.2,5.41,>6.1,4.8,Active,Activity (HCT-116 [20]): Active; pIC50 (Huh-7 [21]): 5.05; Activity_index (PC-3 [22]): 0.3; Activity (PC-3 [23]): 0.9%; Activity (Huh-7 [24]): 0.3%; Activity (MDA-MB-231 [25]): 12%; Activity (MCF7): Active; Activity (HCT-116 [26]): Active; Activity (MDA-MB-231 [27]): Active; Ratio IC50 [28]: >16.1; Ratio IC50 [29]: >5.6; Activity_index (HaCaT [30]): 17.5; Activity_index (MDA-MB-231 [31]): 25; Activity (HCT-116 [32]): 20%; Activity_index (Huh-7 [33]): 12.3; Activity_index (Huh-7 [34]): 1; Ratio IC50 [35]: >5.3; Activity (NCI-H727 [36]): 37%
